According to PubChem BioAssay (NCI):
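Growth conditions: 96-well plates. Treatment: test compound, 48 hours, 5 concentrations. Analysis: linear interpolation between bracketing concentrations; unreached endpoints set to highest concentration. The concentration for 50% growth inhibition is given as GI50. TGI marks complete inhibition of growth.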

Key:
Assay in all cases: NCI tumour cell line growth inhibition, 48 h
786-0 renal = test system: 786-0 renal
A498 renal = test system: A498 renal
A549 NSCLC = test system: A549 NSCLC
ACHN renal = test system: ACHN renal
BT-549 breast = test system: BT-549 breast
CAKI-1 renal = test system: CAKI-1 renal
CCRF-CEM leukemia = test system: CCRF-CEM leukemia
COLO 205 colon = test system: COLO 205 colon
DU-145 prostate = test system: DU-145 prostate
EKVX NSCLC = test system: EKVX NSCLC
HCC-2998 colon = test system: HCC-2998 colon
HCT-116 colon = test system: HCT-116 colon
HCT-15 colon = test system: HCT-15 colon
HL-60(TB) leukemia = test system: HL-60(TB) leukemia
HOP-62 NSCLC = test system: HOP-62 NSCLC
HOP-92 NSCLC = test system: HOP-92 NSCLC
HS 578T breast = test system: HS 578T breast
HT29 colon = test system: HT29 colon
IGROV1 ovarian = test system: IGROV1 ovarian
K-562 leukemia = test system: K-562 leukemia
KM12 colon = test system: KM12 colon
LOX IMVI melanoma = test system: LOX IMVI melanoma
M14 melanoma = test system: M14 melanoma
MALME-3M melanoma = test system: MALME-3M melanoma
MCF7 breast = test system: MCF7 breast
MDA-MB-231 breast = test system: MDA-MB-231 breast
MDA-MB-435 = test system: MDA-MB-435
MOLT-4 leukemia = test system: MOLT-4 leukemia
NCI-H226 lung = test system: NCI-H226 lung
NCI-H23 lung = test system: NCI-H23 lung
NCI-H460 lung = test system: NCI-H460 lung
NCI-H522 lung = test system: NCI-H522 lung
NCI/ADR-RES ovarian = test system: NCI/ADR-RES ovarian
OVCAR-3 ovarian = test system: OVCAR-3 ovarian
OVCAR-4 ovarian = test system: OVCAR-4 ovarian
OVCAR-5 ovarian = test system: OVCAR-5 ovarian
OVCAR-8 ovarian = test system: OVCAR-8 ovarian
PC-3 prostate = test system: PC-3 prostate
RPMI-8226 leukemia = test system: RPMI-8226 leukemia
RXF 393 renal = test system: RXF 393 renal
SF-268 CNS = test system: SF-268 CNS
SF-295 CNS = test system: SF-295 CNS
SF-539 CNS = test system: SF-539 CNS
SK-MEL-2 melanoma = test system: SK-MEL-2 melanoma
SK-MEL-28 melanoma = test system: SK-MEL-28 melanoma
SK-MEL-5 melanoma = test system: SK-MEL-5 melanoma
SK-OV-3 ovarian = test system: SK-OV-3 ovarian
SN12C renal = test system: SN12C renal
SNB-19 CNS = test system: SNB-19 CNS
SNB-75 CNS = test system: SNB-75 CNS
SW-620 colon = test system: SW-620 colon
T-47D breast = test system: T-47D breast
TK-10 renal = test system: TK-10 renal
U251 CNS = test system: U251 CNS
UACC-257 melanoma = test system: UACC-257 melanoma
UACC-62 melanoma = test system: UACC-62 melanoma
UO-31 renal = test system: UO-31 renal

## O=c1c2cc(I)ccc2nc(-c2cccs2)n1-c1ccc(S(=O)(=O)Nc2nccs2)cc1
786-0 renal
  GI50: 54.1 µM
  TGI: > 100 µM
A498 renal
  GI50: 22.7 µM
  TGI: 71.5 µM
A549 NSCLC
  GI50: 49.1 µM
  TGI: > 100 µM
ACHN renal
  GI50: 41.3 µM
  TGI: > 100 µM
BT-549 breast
  GI50: 22.3 µM
  TGI: 60.6 µM
CAKI-1 renal
  GI50: 21.1 µM
  TGI: 52 µM
CCRF-CEM leukemia
  GI50: 38.4 µM
  TGI: > 100 µM
COLO 205 colon
  GI50: 33.5 µM
  TGI: > 100 µM
DU-145 prostate
  GI50: 27.4 µM
  TGI: > 100 µM
EKVX NSCLC
  GI50: 20.8 µM
  TGI: 55.5 µM
HCC-2998 colon
  GI50: 29.5 µM
  TGI: 62.5 µM
HCT-116 colon
  GI50: 37.1 µM
  TGI: > 100 µM
HCT-15 colon
  GI50: 42.6 µM
  TGI: > 100 µM
HL-60(TB) leukemia
  GI50: 50.4 µM
  TGI: > 100 µM
HOP-62 NSCLC
  GI50: 42.8 µM
  TGI: > 100 µM
HOP-92 NSCLC
  GI50: 28.8 µM
  TGI: > 100 µM
HS 578T breast
  GI50: 26.2 µM
  TGI: 84.1 µM
HT29 colon
  GI50: > 100 µM
  TGI: > 100 µM
IGROV1 ovarian
  GI50: 33.2 µM
  TGI: > 100 µM
K-562 leukemia
  GI50: 36.6 µM
  TGI: > 100 µM
KM12 colon
  GI50: 39.2 µM
  TGI: > 100 µM
LOX IMVI melanoma
  GI50: 28.9 µM
  TGI: 82.8 µM
M14 melanoma
  GI50: > 100 µM
  TGI: > 100 µM
MALME-3M melanoma
  GI50: 36.7 µM
  TGI: 99.9 µM
MCF7 breast
  GI50: 41.7 µM
  TGI: > 100 µM
MDA-MB-231 breast
  GI50: 25.1 µM
  TGI: 73.5 µM
MDA-MB-435
  GI50: 36.8 µM
  TGI: > 100 µM
MOLT-4 leukemia
  GI50: 61.4 µM
  TGI: > 100 µM
NCI-H226 lung
  GI50: 24.9 µM
  TGI: 74.8 µM
NCI-H23 lung
  GI50: 22.5 µM
  TGI: > 100 µM
NCI-H460 lung
  GI50: 34.2 µM
  TGI: > 100 µM
NCI-H522 lung
  GI50: 25.9 µM
  TGI: 76 µM
NCI/ADR-RES ovarian
  GI50: 88.1 µM
  TGI: > 100 µM
OVCAR-3 ovarian
  GI50: 25.3 µM
  TGI: 83.8 µM
OVCAR-4 ovarian
  GI50: 86.9 µM
  TGI: > 100 µM
OVCAR-5 ovarian
  GI50: 35.3 µM
  TGI: > 100 µM
OVCAR-8 ovarian
  GI50: 32 µM
  TGI: 98 µM
PC-3 prostate
  GI50: 38.4 µM
  TGI: > 100 µM
RPMI-8226 leukemia
  GI50: 38.4 µM
  TGI: > 100 µM
RXF 393 renal
  GI50: 40 µM
  TGI: > 100 µM
SF-268 CNS
  GI50: 29.6 µM
  TGI: > 100 µM
SF-295 CNS
  GI50: 27.6 µM
  TGI: > 100 µM
SF-539 CNS
  GI50: 22.6 µM
  TGI: 44.5 µM
SK-MEL-2 melanoma
  GI50: 33.2 µM
  TGI: > 100 µM
SK-MEL-28 melanoma
  GI50: 78.5 µM
  TGI: > 100 µM
SK-MEL-5 melanoma
  GI50: 19.7 µM
  TGI: 44.2 µM
SK-OV-3 ovarian
  GI50: 66.6 µM
  TGI: > 100 µM
SN12C renal
  GI50: 37.2 µM
  TGI: > 100 µM
SNB-19 CNS
  GI50: 41.9 µM
  TGI: > 100 µM
SNB-75 CNS
  GI50: > 100 µM
  TGI: > 100 µM
SW-620 colon
  GI50: 31.3 µM
  TGI: > 100 µM
T-47D breast
  GI50: 34.4 µM
  TGI: > 100 µM
TK-10 renal
  GI50: 35.2 µM
  TGI: > 100 µM
U251 CNS
  GI50: 27.2 µM
  TGI: 81.7 µM
UACC-257 melanoma
  GI50: 41.8 µM
  TGI: > 100 µM
UACC-62 melanoma
  GI50: 22.8 µM
  TGI: 52.1 µM
UO-31 renal
  GI50: 22.6 µM
  TGI: 51.6 µM
